Experimental data: patent US9320760B2, “Compositions and methods of use of compounds to increase cancer patient survival time” (BioNumerik Pharmaceuticals, Inc., priority 2008, dated 2016)
“Also recorded” adds a separate entry of the source.

Tests used:
human cancer cell lines = experiment: interference with paclitaxel and platinum induced cytotoxicity; type: cell-based
Description: (§1) An important element of Tavocept's™ effectiveness as a compound in the treatment of cancer is its selectivity for normal cells versus cancer cells and its inability to interfere with the anti-cancer activity of chemotherapeutic agents.

whole cells = experiment: whole cell mediated disulfide reduction (α-lipoic acid, hydroxyethyldisulfide); type: cell-based; details: treatments with paclitaxel, cisplatin and Tavocept
[1] = interference with paclitaxel and platinum regimens in animal models; type: in vivo
Description: as §1

[2] = tested on: patients with advanced non-small cell lung carcinoma (NSCLC), including the adenocarcinoma sub-type; experiment: Japan Phase III Clinical Trial (paclitaxel + cisplatin with Tavocept or placebo); type: in vivo, human
Procedure: Patients admitted into the trial included those patients without previous treatment (excluding surgical treatment, administration of Picibanil into the serous membrane, irradiation of 30% or less hematopoietic bone, or oral chemotherapeutic agents within 3 months of entry in the trial).
The Japan Phase III Clinical Trial was conducted as a double-blind study because peripheral neuropathy is diagnosed based on subjective symptoms evaluated through clinical interviews, lab tests, and the like. Accordingly, evaluations by both physicians and patients are highly important. […] A placebo was used as control since there is no established therapy or drug for preventing peripheral neuropathy. Because the severity of peripheral neuropathy is evaluated based on patient's reports (i.e., subjective symptoms), the Peripheral Neuropathy Questionnaire (PNQ©) was used in primary evaluation. CIPN-20 and NCI-CTC were used in secondary evaluation. The incidence and severity of adverse reactions, time to their onset, etc. and the like, were compared between patients treated with Tavocept™ and those given a placebo using the aforementioned methods.

Thioredoxin Reductase = molecular target: T1, Thioredoxin Reductase (Bos taurus, UniProt O62768); experiment: NADPH oxidation at 340 nm, thioredoxin reductase only; type: biochemical, bovine
T1 sequence (O62768 1-499): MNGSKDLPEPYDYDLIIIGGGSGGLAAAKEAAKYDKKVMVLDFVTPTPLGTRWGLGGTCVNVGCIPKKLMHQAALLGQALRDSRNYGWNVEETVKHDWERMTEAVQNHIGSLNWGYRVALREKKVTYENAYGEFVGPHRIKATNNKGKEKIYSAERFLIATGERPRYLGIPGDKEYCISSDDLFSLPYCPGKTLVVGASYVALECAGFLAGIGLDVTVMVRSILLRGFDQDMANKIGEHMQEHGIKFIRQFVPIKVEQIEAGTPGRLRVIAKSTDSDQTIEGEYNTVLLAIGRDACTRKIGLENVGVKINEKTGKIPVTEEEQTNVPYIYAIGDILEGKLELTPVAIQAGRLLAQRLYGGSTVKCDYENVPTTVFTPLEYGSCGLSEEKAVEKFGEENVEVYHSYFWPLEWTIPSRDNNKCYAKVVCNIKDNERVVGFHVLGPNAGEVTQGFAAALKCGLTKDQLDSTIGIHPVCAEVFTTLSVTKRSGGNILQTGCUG
Procedure: Biochemistry 21:6628-6633 (1982).
Data was then collected and plotted in Microsoft Excel. Error calculations, and graphical representations were performed in Microsoft Excel and Kaleidograph (ver. 3.5). Nonlinear data was graphically rendered using Kaleidograph. ANOVA and other statistical analyses were performed using SAS (ver. 8.2). Unless otherwise noted, significance level was set at 0.05, and error bars represent actual experimental standard deviation.
It should be noted that for the purposes of FIG. 17 only, thioredoxin is labeled TXR and thioredoxin reductase is labeled TRR.

[3] = molecular target: T2, glutathione reductase (GR) (Homo sapiens, UniProt P00390); experiment: NADPH oxidation, glutathione reductase (GR) alone; type: biochemical
T2 sequence (P00390 44-522): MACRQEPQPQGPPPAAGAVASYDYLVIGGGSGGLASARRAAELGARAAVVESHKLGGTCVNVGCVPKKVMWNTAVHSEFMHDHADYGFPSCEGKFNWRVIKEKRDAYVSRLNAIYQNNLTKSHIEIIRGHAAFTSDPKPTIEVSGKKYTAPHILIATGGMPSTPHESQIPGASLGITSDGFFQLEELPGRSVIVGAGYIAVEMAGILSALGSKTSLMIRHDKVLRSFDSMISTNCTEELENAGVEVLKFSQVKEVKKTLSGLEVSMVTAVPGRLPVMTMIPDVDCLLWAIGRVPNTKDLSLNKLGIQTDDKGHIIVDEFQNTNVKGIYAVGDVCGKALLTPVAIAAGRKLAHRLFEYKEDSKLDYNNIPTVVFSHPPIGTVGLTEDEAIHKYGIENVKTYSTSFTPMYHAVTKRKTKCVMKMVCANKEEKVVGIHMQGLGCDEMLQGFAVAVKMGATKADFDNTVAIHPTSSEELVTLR
Procedure: (§2) The Formula (I) compound was utilized at a concentration of 0.5 mM.

[4] = molecular target: T3, GR + GRX + GSH (coupled glutaredoxin/glutathione/glutathione reductase system) (Homo sapiens, UniProt P35754); experiment: NADPH oxidation, coupled GRX/GSH/GR system; type: biochemical
T3 sequence (P35754 1-106): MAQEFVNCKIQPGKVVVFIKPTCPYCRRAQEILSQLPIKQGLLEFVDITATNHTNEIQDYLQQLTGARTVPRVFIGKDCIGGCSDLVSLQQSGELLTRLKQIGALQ
Procedure: as §2

[5] = tested on: human breast, ovarian and lymphoma cancer cell lines; experiment: interference with paclitaxel induced apoptosis (PARP cleavage, Bcl-2 phosphorylation, DNA laddering); type: cell-based; details: in vitro
Description: as §1

GR + GSH = molecular target: T4, GR + GSH (Homo sapiens, UniProt P00390); experiment: NADPH oxidation, GR + GSH; type: biochemical; details: Disulfide 0.5 mM; n = 6
T4 sequence (P00390 44-522): T2 sequence (P00390 44-522)
Procedure: as §2

[6] = FIG. 7, Tavocept arm (5 in the placebo arm)

O=S(=O)([O-])CCSSCCS(=O)(=O)[O-].[Na+].[Na+] [Tavocept™, disodium 2,2′-dithio-bis-ethane sulfonate]
interference with paclitaxel and platinum induced cytotoxicity (human cancer cell lines): did not interfere | whole cell mediated disulfide reduction (whole cells): declined | interference with paclitaxel and platinum regimens [1]: did not interfere | reduction in severe (Grade D or E) peripheral neuropathy (PNQ, Primary Endpoint) ([2]; FIG. 5, paclitaxel/Tavocept/cisplatin regimen vs paclitaxel/saline placebo/cisplatin regimen, NSCLC patients): ~50% | patients with Grade 3 (severe) decrease in hematocrit levels [2, 6]: 1 patients | patients with Grade 3 (severe) decrease in red blood cell levels [2, 6]: 1 patients | patients with Grade 3 (severe) decrease in hemoglobin ([2]; FIG. 7, Tavocept arm (8 in the placebo arm)): 2 patients | response rate as measured by the IRC ([2]; FIG. 8, Tavocept arm (28.6% in the placebo arm)): 33.3% | Response Rate, as measured by physicians (Doctor) ([2]; FIG. 8, Tavocept arm (33.0% in the placebo arm)): 41.9% | increase in median survival time ([2]; FIG. 9, NSCLC patients incl. adenocarcinoma, paclitaxel/Tavocept/cisplatin vs paclitaxel/saline placebo/cisplatin): up to 40 days | survival period, female patient population ([2]; FIG. 10, female NSCLC patients, paclitaxel/Tavocept/cisplatin vs paclitaxel/saline placebo/cisplatin): longer survival period | increase in median survival time, adenocarcinoma patients ([2]; FIG. 11, adenocarcinoma sub-type, paclitaxel/Tavocept/cisplatin vs paclitaxel/saline placebo/cisplatin): up to 138 days | increase in median survival time, adenocarcinoma patients ([2]; FIG. 11, adenocarcinoma sub-type, paclitaxel/Tavocept/cisplatin vs paclitaxel/saline placebo/cisplatin, listed as Tavocept): approximately 138 days | chemotherapy-induced vomiting/emesis and kidney damage ([2]; Tavocept and chemotherapy vs chemotherapy and placebo, result in words): medically-important reductions | increase in median survival time, adenocarcinoma patients ([2]; adenocarcinoma patients in the Tavocept arm): ~4.5 months | NADPH Oxidation, Thioredoxin Reductase only (Thioredoxin Reductase; Disulfide 0.5 mM, minimum of triplicate assays): 0.3 ± 0.01 nmol/min/mL | NADPH oxidation by TXR in the absence of TX (Thioredoxin Reductase; FIG. 17): indistinguishable from background | substrate for thioredoxin reductase alone (Thioredoxin Reductase; result in words): not thioredoxin reductase alone; also recorded: not for TXR | NADPH Oxidation, GR ([3]; Disulfide 0.5 mM, n = 6): 0.0 ± 0.01 nmol/min/mL | substrate / alternative substrate inhibitor for glutathione reductase ([3]; result in words): not a substrate | NADPH Oxidation, GR + GRX + GSH ([4]; Disulfide 0.5 mM, n = 6): 15.3 ± 1.0 nmol/min/mL | substrate-like activity with glutaredoxin / alternative substrate inhibitor for the coupled GRX/GSH/GR system ([4]; in the presence of reduced glutathione and glutathione reductase, result in words): exhibits substrate-like activity | interference with paclitaxel induced apoptosis [5]: does not interfere | NADPH Oxidation, GR + GSH (GR + GSH): 2.9 ± 1.6 nmol/min/mL
